According to US20040253576A1 (priority 2003, published 2004):
Entries after “also recorded” stand apart in the source; their conditions may differ. Read-outs that look alike come from different tables or passages of the source.

What was measured:
MSNs from the NAcb shell [1] = type: cell-based, Sprague-Dawley rats; conditions: for effect on DA-mediated changes in spike firing / effect on spike firing, intracellular perfusion alone: 1 μM, intracellular perfusion; for effect on increase in spike firing elicited by D1/D2 co-activation: dialysis of neurons; for effect on activation of spike firing by forskolin: peptide in intracellular solution
[2] = test system: total potassium currents, comprised of IAs, delayed-rectifier, and non-inactivating potassium currents; test: voltage-clamp measurement of total evoked potassium current; type: cell-based, Sprague-Dawley rats
MSNs from the NAcb shell [3] = test system: MSNs from the NAcb shell
Procedure: Patch-clamping was performed using visualized infrared-DIC with 2.5 to 3.5 MΩ electrodes. Current pulses were applied using Clampex 8.0 and an Axo-1D patch amplifier in current-clamp mode (Axon Instruments, Foster City, Calif.). Upon breaking into neurons, the resting membrane potentials were between −95 and −80 mV. […] Series resistance correction was 15-20 MΩ. To record EPSPs, a bipolar stimulating electrode was placed ˜100 μM lateral to the recording electrode. Afferents were stimulated with 10 pulses at 20 Hz (20 μs) every 30 seconds using a Master 8 (AMPI, Jerusalem, Israel), and EPSPs were recorded using Clampex in current-clamp mode.
We also performed a within-cell comparison of the spike firing change and the change in input resistance or Vm-rest.

For Nc1ccncc1 [4-AP, 4-aminopyridine], the “effect on DA-mediated enhancement of spike firing (occlusion)” value (MSNs from the NAcb shell [1]; 60 μM pre-exposure) was “significantly occluded the effects of DA”, the “effect on spike firing” value (MSNs from the NAcb shell [1]; 5-60 μM) was “increased spike firing in a dose-dependent manner; also recorded: significantly enhanced spike firing” and the “change in spike firing with DA after pre-exposure to IAs inhibitor” value (MSNs from the NAcb shell [1]; inhibitor 10 μM) was 11.4+/−5.1%. The “effect on potassium current evoked by a 300 ms pulse to 0 mV” value ([2]; 10 μM) was “small but significant inhibition”.
For NCCc1ccc(O)c(O)c1 [DA, Dopamine], the “effect on spike firing” value (MSNs from the NAcb shell [1]) was “significantly and reversibly elevated spike firing”, the “enhancement in spike firing by DA with calcium channels blocked” value (MSNs from the NAcb shell [1]; pre-incubation with ω-conotoxin GVIA 500 nM and ω-agatoxin IVA 250 nM, continuous nifedipine 30 μM) was 24.0+/−5.0% and the “effect on potassium current evoked by a 300 ms pulse to 0 mV” value ([2]; 75 μM) was “small but significant inhibition”. The “effect on input resistance (R-input)” value (MSNs from the NAcb shell [3]) was “no significant changes” and the “effect on resting membrane potential (Vm-rest)” value (MSNs from the NAcb shell [3]) was “no significant changes”.
For CCCN1CCc2cccc3c2[C@H]1Cc1ccc(O)c(O)c1-3 [NPA, propylnorapomorphine], the “effect on spike firing, agonist alone” value (MSNs from the NAcb shell [1]; 3 μM, alone) was “not altered”.
In the case of Nc1ncnc2c1ncn2[C@@H]1O[C@@H]2CO[P@@](O)(=S)O[C@H]2[C@H]1O [Rp-cAMPS], the “effect on spike firing when added during the DA response” value (MSNs from the NAcb shell [1]; 100 μM, during plateau DA response) is reported as “significantly reduced spike firing to pre-DA levels”.
With CN1CCc2cc(Cl)c(O)cc2[C@@H](c2ccccc2)C1 [SCH 23990] the “change in spike firing with DA after pre-exposure to antagonist” value (MSNs from the NAcb shell [1]; antagonist 1 μM, pre-exposure) was −0.5+/−4.6%.
Oc1cc2c(c(Cl)c1O)CCNCC2c1ccccc1 (stereo not shown) [SKF 81297] was tested, and the “effect on spike firing in cells perfused with Gβγ” value (MSNs from the NAcb shell [1]; 10 μM, intracellular Gβγ subunits 20 nM) was “significantly enhanced spike firing”, the “effect on spike firing, agonist alone” value (MSNs from the NAcb shell [1]; 1-10 μM, alone) was “not altered” and the “change in spike firing in neurons perfused with Gβγ vehicle plus maltose binding protein” value (MSNs from the NAcb shell [1]; control perfusion without Gβγ) was −2.5+/−2.5%.
CC(N)Cc1ccccc1 (stereo not shown) [amphetamine] was tested, and the “change in spike firing” value (MSNs from the NAcb shell [1]; 10 μM, bath application) was 18.5+/−5.4%.
In the case of C=C[C@@]1(C)CC(=O)[C@@H]2[C@@]3(C)CCCC(C)(C)[C@@H]3[C@H](O)[C@H](OC(C)=O)[C@@]2(C)O1 [dideoxy-forskolin], the “effect on spike firing” value (MSNs from the NAcb shell [1]; 5 μM) is reported as “had no effect”.
With CCc1cc(Cl)c(OC)c(C(=O)NC[C@@H]2CCCN2CC)c1O [eticlopride] the “change in spike firing with DA after pre-exposure to antagonist” value (MSNs from the NAcb shell [1]; antagonist 300 nM, pre-exposure) was 2.5+/−5.5% and the “effect on DA-mediated enhancement of spike firing” value (MSNs from the NAcb shell [1]; antagonist 3 μM, pre-exposure) was “prevented”.
In the case of N[C@@H](CCC(=O)O)C(=O)O [glutamate], the “effect on spike rate after exposure to 60 μM 4-AP” value (MSNs from the NAcb shell [1]; 200 μM, after 60 μM 4-AP) is reported as “further increased spike rate”.
C=C1[C@@H](O)[C@@H]2O[C@]3(CC[C@H](/C=C/[C@@H](C)[C@@H]4CC(C)=C[C@@]5(O[C@H](C[C@@](C)(O)C(=O)O)CC[C@H]5O)O4)O3)CC[C@H]2O[C@@H]1[C@@H](O)C[C@H](C)[C@H]1O[C@@]2(CCCCO2)CC[C@H]1C [okadaic acid] was tested, and the “effect on DA-mediated changes in spike firing” value (MSNs from the NAcb shell [1]) was “occluded”, the “effect on spike firing, intracellular perfusion alone” value (MSNs from the NAcb shell [1]) was “significantly enhanced” and the “firing change with okadaic acid in the presence of 4-AP” value (MSNs from the NAcb shell [1]; ˜13 minutes pre-exposure to 60 μM 4-AP) was 16+/−4.3%.
CCCN1CCC[C@@H]2Cc3n[nH]cc3C[C@H]21 [quinpirole] was tested, and the “effect on spike firing in cells perfused with Gβγ” value (MSNs from the NAcb shell [1]) was “not”, the “effect on spike firing, agonist alone” value (MSNs from the NAcb shell [1]) was “not altered” and the “effect on spike rate, agonist alone” value (MSNs from the NAcb shell [1]) was “no effect”.
For DALRIQMEERFMASNPSKVSYEPIT [SPβγ], the “effect on increase in spike firing elicited by D1/D2 co-activation” value (MSNs from the NAcb shell [1]; 200 μM) was “prevented” and the “effect on activation of spike firing by forskolin” value (MSNs from the NAcb shell [1]) was “not prevented”.
For Norokadaone, the “effect on DA-mediated changes in spike firing” value (MSNs from the NAcb shell [1]) was “did not prevent the effects of DA” and the “effect on spike firing, intracellular perfusion alone” value (MSNs from the NAcb shell [1]) was “had no effect by itself”.
YEDSYEDISAYLLSKNNAIPR [FVIII] was tested, and the “effect on increase in spike firing elicited by D1/D2 co-activation” value (MSNs from the NAcb shell [1]; 200 μM) was “had no effect” and the “effect on activation of spike firing by forskolin” value (MSNs from the NAcb shell [1]) was “not prevented”.
With “α-dendrotoxin (QPRRKLCILHRNPGRCYDKIPAFYYNQKKKQCERFDWSGCGGNSNRFKTIEECRRTCIG; UniProt P00980 1-59, looked up) [α-dtx]” the “effect on spike firing” value (MSNs from the NAcb shell [1]; 0.5 μM) was “significantly enhanced spike firing” and the “effect on DA-mediated enhancement of spike firing (occlusion)” value (MSNs from the NAcb shell [1]; 0.5 μM pre-exposure) was “significantly occluded the effects of DA”.
